Measured values reported in patent US20180072675A1, “ANTIMICROBIAL PYRIDINOHYDRAZIDE AND HYDRAZOMETHYLPYRIDINE-BASED AGENTS” (Board of Supervisors of Louisiana State University and …, priority 2015, published 2018).
In brackets after ≈: the same amount, converted by molar mass. Entries after “also recorded” stand apart in the source; their conditions may differ.

Tests used:
[1] = tested on: C. albicans clinical isolate 1 (TW1); assay: MIC80 fungal growth inhibition, clinical isolate TW1; format: cell-based, Candida albicans; details: Azole-susceptible, >80% growth inhibition, visual scoring; for MIC80: Candida albicans, read-out: MIC80 TW1
Protocol: (§1) The antifungal activity of the pyridinohydrazide and hydrazomethylpyridine derivatives described in the s were evaluated in vitro using Candida albicans (ATCC Accession No. 10231) and Candida glabrata (ATCC Accession No. 48435). In addition, the compounds were evaluated for activity against two previously-described clinical isolates of C. albicans known to have developed azole-resistance. These isolates were obtained over a two year period from a single AIDS patient and the development of the azole-resistance mechanisms have been extensively characterized (White T C. Antimicrob. Agents Chemother. (1997) 41: 1482-1487). MIC assays were performed on the clinical isolates 1 and 17 (annotated TW1 and TW17, respectively), where isolate 1 was used as an azole-susceptible control and isolate 17 was considered azole-resistant. All assays were done in accordance with NCCLS reference documents (Clinical Laboratory and Standards Institute. Reference method for Broth Dilution Antifungal Susceptibility Testing of Yeasts: Approved Standard. M27-A3 2010; 28). The results of these screenings are summarized in Tables 1-9 (Examples 20-27) as the minimum concentrations that inhibited more than 80% of fungal growth (MIC80) as compared to positive controls containing 1% DMSO. Assays were performed in HEPES-buffered RPMI-1640 media. All MIC screens used a visual scoring method as opposed to spectroscopic analysis, due to the altered absorbance spectra of many of the compounds.

[2] = tested on: C. albicans clinical isolate 17 (TW17); assay: MIC80 fungal growth inhibition, clinical isolate TW17; format: cell-based, Candida albicans; details: for MIC80: Candida albicans, read-out: MIC80 TW17; for MIC80 / MIC80 TW17: Azole-resistant, >80% growth inhibition, visual scoring
Protocol: as §1

[3] = tested on: Candida albicans (ATCC Accession No. 10231); assay: MIC80 fungal growth inhibition, C. albicans ATCC 10231; format: cell-based; details: Azole-susceptible, >80% growth inhibition, visual scoring; for MIC80: Candida albicans, ATCC10231, read-out: MIC80 C. albicans ATCC No. 10231
Protocol: as §1

[4] = tested on: Candida glabrata (ATCC Accession No. 48435); assay: MIC80 fungal growth inhibition, C. glabrata ATCC 48435; format: cell-based; details: Azole-resistant, >80% growth inhibition, visual scoring; for MIC80: Nakaseomyces glabratus, ATCC48435, read-out: MIC80 C. glabrata ATCC No. 48435
Protocol: as §1

[5] = tested on: protozoal proliferation; assay: Protozoal proliferation; format: cell-based; details: FIG. 27
[6] = tested on: Candida strain TW17; assay: Time-kill assay; format: cell-based, Candida albicans; details: four times the MIC for TW17, 48 h
Protocol: FIG. 9 illustrates time-kill assays, for representative analogs that were active against the azole-resistant TW17, to determine the cidal or static nature of the analog tested. 100 μl of each sample was spread onto YM agar plates with a sterile bent spreading rod. Plates were incubated at 35° C. overnight and colonies were then counted on each plate.
One of the objectives of this study was to determine the cidal or static nature of the analogs that were active against such as TW17, the azole-resistant clinical isolate. Azoles affect Candida spp. by inhibiting ergosterol biosynthesis, and ultimately prevent their reproduction. This effect has led to the classification of azoles as fungistats. Determining the fungistatic or fungicidal nature of the synthesized compounds of the present disclosure allows a comparison to azoles, in addition to improving the understanding of how the structural motifs might lend toward an alternate mechanism of action. Therefore, time-kill assays were performed using the representative analogs that were active against the azole-resistant TW17 at concentrations at or below 8 μg/mL.
Solid drugs were dissolved in DMSO to a concentration of 10 mg/ml. This stock solution was then further diluted in water to the desired experimental concentration, determined to be four times that of the MIC for the Candida strain TW17 (as reported in the Tables).
Individual colonies of TW17 were suspended in 5 ml of sterile water and adjusted to achieve a McFarland reading between 0.08 and 0.12. The inoculum was then further diluted in sterile water at a ratio of 1:100. Three […] tissue culture tubes were prepared by combining 2.5 ml of above diluted inoculum, 21.7 ml of HEPES buffered RPMI-1640 media, and 800 μl of experimental drug dilution. A “Growth Control” tube was prepared by combining 2.5 ml of inoculum, 21.7 HEPES buffered RPMI-1640 media, and 800 μl of water-DMSO solution equal to the DMSO concentration of the experimental drug dilution. A “Sterile Control” tube was prepared by combining 24.2 ml of HEPES-buffered RPMI-1640 media and 800 μl of water-DMSO solution as in the “Growth Control”. All tubes were incubated for 48 hours at 35° C., 50 rpm. 500 μl samples were taken from the tubes at time points of predetermined intervals during this incubation.
Time points for the “Kill-Curve” and “Growth Control” tubes were taken at 0, 1, 2, 4, 6, 8, 24, and 48 h after the start of incubation. Time points for “Sterile Control” were taken at 0 and 48 hours. Each time point sample was serially diluted 1:10 in sterile 0.9% NaCl solution up to 5 times. 100 μl of each sample was spread onto YM agar plates with a sterile bent spreading rod. Plates were incubated at 35° C. overnight and colonies were then counted on each plate. Colonies on plates from diluted time points were used to estimate uncountable undiluted samples. The number of colonies in undiluted samples was estimated to be 10^n times greater than the diluted sample, where n was the number of dilutions made.

[7] = tested on: Candida albicans ATCC Accession No. 10231; assay: Checkerboard synergy assay with fluconazole; format: cell-based; details: for FIC Fluc: average FIC of fluconazole at varying concentrations of the test drug; for FIC Test: average FIC of the test drug at varying concentrations of fluconazole; for Activity (interaction with fluconazole): from FIC index; for FIC Index: sum of the two FICs, <1 synergistic, >=1 antagonistic
Protocol: Considering that two different modes of activity (cidal and static) were observed depending on the structural motifs present in our analogs, we performed a series of checkerboard assays to determine if representative active compounds were in fact acting in synergy with the azole, fluconazole. Each of these assays tested multiple concentrations of the selected analog in the presence of multiple concentrations of fluconazole. All checkerboard assays were prepared in 96-well plates. 200 μl of previously prepared drug solutions were added to each well in column 2. Using a multichannel pipette, 100 μl from each well in column 2 was serially diluted (1:2) horizontally across the plate, stopping at column 10. Contents of each well were mixed thoroughly. Column 11 was reserved for fluconazole MIC control and contained no other drug. 100 μl of media was added to each well, column 2-10. Each well was mixed thoroughly with a multichannel pipette. 100 μl was then removed and discarded from these wells. 100 μl of previously prepared fluconazole dilution was added to each well in row B. Using a multichannel pipette, 100 μl from each well was serially diluted (1:2) vertically down the plate, stopping at row F. Contents of each well were mixed thoroughly. Row G was reserved for tested drug MIC control and contained no fluconazole. Well G11 contained neither drug and served as a drug-free growth control. The final 100 μl from each well in row F was discarded.
The fungal samples were prepared from glycerol stocks of Candida albicans ATCC Accession No. 10231. The inoculum's concentration was adjusted to a McFarland standard between 0.08 and 0.12. Inoculum was then diluted at a ratio of 1:37.5 in buffered media. 100 μl of inoculum-media solution was added to each well. Following inoculation, the 96-well plates were wrapped in parafilm to prevent evaporation and incubated for overnight at 35° C. After 18 h, the wells showing growth were recorded.
Synergistic activity was determined based on the MIC read from these plates. The fractional inhibitory concentration (FIC) for a given well is the ratio of the minimum inhibitory concentration of one drug A in the presence another drug B to the minimum inhibitory concentration with only drug A. The FIC was calculated for the test drug in each of the wells along the growth/no-growth interface at varying concentrations of fluconazole, then these values were averaged to determine the average FIC for the test drug. The same process was used to calculate the average FIC for fluconazole at varying concentrations of the test drug. The sum of these two FICs gives the FIC index which can be used to determine the synergistic effect between the two drugs (Hsieh et al., Diagn. Microbiol. Infect. Dis. (1993) 16: 343-349). An FIC index value less than 1 indicated synergistic interactions between the two drugs while an FIC index value greater than or equal to 1 indicated antagonistic interactions.

[8] = tested on: Candida spp.; assay: MIC studies, statements pooled over several isolates; format: cell-based, Candida albicans, Candida glabrata; details: for antifungal activity (in words): overall over the isolates tested
Protocol: as §1

[9] = tested on: Vero (kidney) cells; assay: Mammalian cell toxicity, Promega CellTiter 96, kidney cells; format: cell-based; details: through 10× MIC, 24 h
Protocol: (§2) Cytotoxicity was determined using non-cancerous Vero cells (kidney-african green monkey) and liver cells (Hep-2G) in accordance with Promega CellTiter 96 Non-Radioactive Cell Proliferation Assay (cat # G4000). Compounds were diluted in media and all assays were done in triplicate. Average values are presented, with ±SD. Cells were incubated in the presence of the compounds for 24 h at 37° C. and 5% CO2. Tetrazolium dye solution was added to each well and allowed to incubate for 1-4 h. Solubilization/Stop solution was added and allowed to sit at room temperature for 1 h. Formazan product was scored spectrophotometrically with an automatic plate reader set at 570 nm. Positive control wells for cell death were briefly treated with 0.1% saponin, immediately prior to the addition of dye solution. Wells containing 1% DMSO and no drug were used as a negative control and the average absorbance at 570 nm were set to 100%. The percent of cells viable were calculated as a ratio between the average absorption at 570 nm of the drug containing wells/average absorption at 570 nm of the control (no drug). Ratios were multiplied by 100 to give the values as a percentage as expressed on the y-axis.
(§3) Cytotoxicity studies were performed in accordance with Promega CellTiter 96 Non-RadioactivCell Proliferation Assay (cat #G4000). All cytotoxicity studies used a negative control (wells of either kidney or liver cells containing 1% DMSO but lacking the analog), a positive control (wells of either kidney or liver cells treated with the known cytotoxic agent, saponin) and the serial dilutions of the novel analogs. All control (negative) wells were normalized to 100% viable cells to accurately show the percentage of either liver or kidney cells that remained alive and viable following either overnight incubation with the analogs or 5-minute treatment with 0.1% saponin.

[10] = tested on: Hep G2 (liver) cells; assay: Mammalian cell toxicity, Promega CellTiter 96, liver cells; format: cell-based; details: through 10× MIC, 24 h
Protocol: as §2, §3

Compound	MIC80 [1] [µg/mL]	MIC80 [2] [µg/mL]	MIC80 [4] [µg/mL]	effect on protozoal proliferation [5]	MIC80 TW1 [1] [µg/mL]	MIC80 C. albicans ATCC No. 10231 [3] [µg/mL]	MIC80 C. glabrata ATCC No. 48435 [4] [µg/mL]	MIC80 TW17 [2] [µg/mL]	further results
O=C(N/N=C/c1cc(Cl)ccc1O)c1ccccn1 [AR4, (E)-N′-(5-Chloro-2-hydroxybenzylidene)picolinohydrazide]	4 (≈ 14.5 µM)	8 (≈ 29 µM)	1 (≈ 3.63 µM)	reduce protozoal proliferation	–	–	–	–	MIC80 [3]: 1 µg/mL (≈ 3.63 µM)
O=C(N/N=C/c1cc(Br)ccc1O)c1ccccn1 [AR5, (E)-N′-(5-bromo-2-hydroxybenzylidene)picolinohydrazide]	2 (≈ 6.25 µM)	4 (≈ 12.5 µM)	4 (≈ 12.5 µM)	reduce protozoal proliferation	–	–	–	–	MIC80 [3]: 1 µg/mL (≈ 3.12 µM); Cidal vs Static [6]: fungicidal; also recorded: Cidal; FIC Fluc [7]: 1.00; FIC Test [7]: 0.90; Activity (interaction with fluconazole) [7]: Antagonistic; FIC Index [7]: 1.90
Cc1ccc(O)c(/C=N/NC(=O)c2cccnc2)c1 [AR8]	–	–	–	–	16 (≈ 62.7 µM)	4 (≈ 15.7 µM)	8 (≈ 31.3 µM)	–	activity against azole-resistant isolates (in words) ([8]; azole-resistant isolates): less active
O=C(N/N=C/c1ccccc1O)c1cccnc1O [AR19]	4 (≈ 15.5 µM)	4 (≈ 15.5 µM)	1 (≈ 3.89 µM)	–	–	–	–	–	cell toxicity [9]: minimal toxicity; cell toxicity [10]: minimal toxicity; growth inhibition (in words) ([8]; across all Candida albicans isolates): growth inhibition was observed at very low concentrations
O=C(N/N=C/c1cc([N+](=O)[O-])ccc1O)c1ccc[n+]([O-])c1 [AR28]	–	–	–	–	4 (≈ 13.2 µM)	8 (≈ 26.5 µM)	4 (≈ 13.2 µM)	2 (≈ 6.62 µM)	activity against azole-resistant TW17 [2]: 2 µM; Cidal vs Static [6]: Static; FIC Fluc [7]: 1.00; FIC Test [7]: 1.00; Activity (interaction with fluconazole) [7]: Antagonistic; FIC Index [7]: 2.00
C(=NNc1ccccc1)c1ccccn1 [AR29]	–	–	–	–	16 (≈ 81.1 µM)	16 (≈ 81.1 µM)	31 (≈ 157 µM)	16 (≈ 81.1 µM)	antifungal activity (in words) [8]: moderate activity
O=C(NN=Cc1ccccn1)c1ccccn1 [AR34]	–	–	–	–	16 (≈ 70.7 µM)	31 (≈ 137 µM)	16 (≈ 70.7 µM)	16 (≈ 70.7 µM)	antifungal activity (in words) [8]: moderate activity
O=C(N/N=C/c1cc([N+](=O)[O-])ccc1O)c1ccncc1 [SA113]	–	–	–	reduce protozoal proliferation	–	–	–	–	–
